Test results from patent publication US8173665B2, “I-pheny 1-3,4-dihydropyrimidin-2(1H)-one derivatives and their use” (Bayer Pharma Aktiengesellschaft, priority 2002, dated 2012).

The compounds below were run against T1, human neutrophil elastase (HNE) (Homo sapiens, UniProt P08246) (assay: In vitro inhibition of HNE using a fluorogenic peptide substrate (MeOSuc-Ala-Ala-Pro-Val-AMC)). Details: 384 MTP format.
T1 construct: purchased SERVA Electrophoresis GmbH, Heidelberg, Germany #20927.01
T1 sequence (P08246 30-267): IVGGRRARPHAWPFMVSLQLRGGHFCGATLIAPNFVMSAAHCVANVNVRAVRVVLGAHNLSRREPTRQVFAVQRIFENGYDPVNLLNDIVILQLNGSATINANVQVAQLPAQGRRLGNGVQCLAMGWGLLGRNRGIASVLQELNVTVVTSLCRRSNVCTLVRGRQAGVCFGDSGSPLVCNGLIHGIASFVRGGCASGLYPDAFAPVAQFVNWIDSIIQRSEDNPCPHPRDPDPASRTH
Format: biochemical
Experimental: I. In Vitro Enzyme Assays of Human Neutrophil Elastase (HNE) assay buffer: 0.1 M HEPES-NaOH buffer pH 7.4, 0.5 M NaCl, 0.1% (w/v) bovine serum albumin; suitable concentration (see below) of HNE (18 U/mg lyophil., #20927.01, SERVA Electrophoresis GmbH, Heidelberg, Germany) in assay buffer; suitable concentration (see below) of substrate in assay buffer; suitable concentration of test compounds diluted with assay buffer from a 10 mM stock solution in DMSO.
In Vitro Inhibition of HNE Using a Fluorogenic Peptide Substrate
Continuous Read-Out Signal, 384 MTP Assay Format
In this protocol, the elastase substrate MeOSuc-Ala-Ala-Pro-Val-AMC (#324740, Calbiochem-Novabiochem Corporation, Merck KGaA, Darmstadt, Germany) is used. The test solution is prepared by mixing 10 μl of test compound dilution, 20 μl of HNE enzyme dilution (final concentration 8-0.4 μU/ml, routinely 2.1 μU/ml) and 20 μl of substrate dilution (final concentration 1 mM-1 μM, routinely 20 μM), respectively. The solution is incubated for 0-2 hrs at 37° C. (routinely one hour). The fluorescence of the liberated AMC due to the enzymatic reaction is measured at 37° C. (TECAN spectra fluor plus plate reader). The rate of increase of the fluorescence (ex. 395 nm, em. 460 nm) is proportional to elastase activity. IC50 values are determined by RFU-versus-[I] plots. Km and Km(app.) values are determined by Lineweaver-Burk plots and converted to Ki values by Dixon plots.
Work on `CCOC(=O)C1=C(C)N(c2cccc(Cl)c2)C(SCCCOC(N)=O)=NC1c1ccc(C#N)cc1` (stereo not shown) [Example 33] yielded an IC50 of 20 nM.
`CCOC(=O)C1=C(C)N(c2cccc(C(F)(F)F)c2)C(SCc2ccncc2)=NC1c1ccc(C#N)cc1` (stereo not shown) [Example 12, Ethyl 4-(4-cyanophenyl)-6-methyl-2-[(4-pyridinylmethyl)sulfanyl]-1-[3-(trifluoromethyl)phenyl]-1,4-dihydro-5-pyrimidinecarboxylate] was tested, and the IC50 was 100 nM.
Compound `CCOC(=O)C1=C(C)N(c2cccc(C(F)(F)F)c2)C(=S)NC1c1ccc(C#N)cc1` (stereo not shown) [Example 3, Ethyl 4-(4-cyanophenyl)-6-methyl-2-thioxo-1-[3-(trifluoromethyl)phenyl]-1,2,3,4-tetrahydro-5-pyrimidinecarboxylate] has an IC50 of 9 nM.
`CCN(CC)CCOC(=O)C1=C(C)N(c2cccc(C(F)(F)F)c2)C(SC)=NC1c1ccc(C#N)cc1` (stereo not shown) [Example 58, 2-(Diethylamino)ethyl 4-(4-cyanophenyl)-6-methyl-2-(methylsulfanyl)-1-[3-(trifluoromethyl)phenyl]-1,4-dihydro-5-pyrimidinecarboxylate] was tested, and the IC50 was 12 nM.
`CCOC(=O)C1=C(C)N(c2cccc(C(F)(F)F)c2)C(SCC)=NC1c1ccc(C#N)cc1` (stereo not shown) [Example 9] was tested, and the IC50 was 40 nM.
`CC1=C(C(N)=O)C(c2ccc(C#N)cc2)NC(=S)N1c1cccc(C(F)(F)F)c1` (stereo not shown) [Example 4, 4-(4-Cyanophenyl)-6-methyl-2-thioxo-1-[3-(trifluoromethyl)phenyl]-1,2,3,4-tetrahydro-5-pyrimidinecarboxamide] gave an IC50 of 23 nM.
With `CC1=C(C(=O)N(C)C)C(c2ccc(C#N)cc2)NC(=S)N1c1cccc(C(F)(F)F)c1` (stereo not shown) [Example 6, 4-(4-Cyanophenyl)-N,N,6-trimethyl-2-thioxo-1-[3-(trifluoromethyl)phenyl]-1,2,3,4-tetrahydro-5-pyrimidinecarboxamide] the IC50 was 70 nM.
Compound `CC1=C(C(=O)O)C(c2ccc(C#N)cc2)NC(=S)N1c1cccc(C(F)(F)F)c1` (stereo not shown) [Example 19, 4-(4-Cyanophenyl)-6-methyl-2-thioxo-1-[3-(trifluoromethyl)phenyl]-1,2,3,4-tetrahydropyrimidine-5-carboxylic acid] has an IC50 of 30 nM.
`CC(=O)C1=C(C)N(c2cccc(C(F)(F)F)c2)C(=S)NC1c1ccc(C#N)cc1` (stereo not shown) [Example 1, 4-{5-Acetyl-6-methyl-2-thioxo-1-[3-(trifluoromethyl)phenyl]-1,2,3,4-tetrahydro-4-pyrimidinyl}benzonitrile] was tested, and the IC50 was 13 nM.
In the case of `CCOC(=O)C1=C(C)N(c2cccc(C(F)(F)F)c2)C(SCc2ncc[nH]2)=NC1c1ccc(C#N)cc1` (stereo not shown) [Example 15, Ethyl 4-(4-cyanophenyl)-2-[(1H-imidazol-2-ylmethyl)sulfanyl]-6-methyl-1-[3-(trifluoromethyl)phenyl]-1,4-dihydro-5-pyrimidinecarboxylate], the IC50 is reported as 5 nM.
For `CCOC(=O)C1=C(C)N(c2cccc(C(F)(F)F)c2)C(SC)=NC1c1ccc(C#N)cc1` (stereo not shown) [Example 7], the IC50 was 10 nM.
`CCOC(=O)C1=C(C)N(c2cccc(C(F)(F)F)c2)C(SC)=NC1c1ccc(C#N)cc1C` (stereo not shown) [Example 31, Ethyl 4-(4-cyano-2-methylphenyl)-6-methyl-2-(methylsulfanyl)-1-[3-(trifluoromethyl)phenyl]-1,4-dihydro-5-pyrimidinecarboxylate] gave an IC50 of 80 nM.
For `CCOC(=O)C1=C(C)N(c2cccc(C(F)(F)F)c2)C(=S)N(C(=O)C2CCC2)C1c1ccc(C#N)cc1` (stereo not shown) [Example 29], the IC50 was 10 nM.
For `CCOC(=O)C1=C(C)N(c2cccc(C(F)(F)F)c2)C(SCCN(CC)CC)=NC1c1ccc(C#N)cc1` (stereo not shown) [Example 14, Ethyl 4-(4-cyanophenyl)-2-{[2-(diethylamino)ethyl]sulfanyl}-6-methyl-1-[3-(trifluoromethyl)phenyl]-1,4-dihydro-5-pyrimidinecarboxylate], the IC50 was 10 nM.

These compounds were tested on human polymorphonuclear cells (PMNs) (assay: In vitro PMN elastolysis assay (3H-elastin)). Details: at 1.2 μM; n=3 different donors at 3.6×10^5 cells per well.
Format: cell-based
Experimental: In Vitro PMN Elastolysis Assay
This assay is used to determine the elastolytic potential of human polymorphonuclear cells (PMNs) and assess the proportion of degradation due to neutrophil elastase [cf. Z. W. She et al., Am. J. Respir. Cell. Mol. Biol. 9, 386-392 (1993)].
Tritiated elastin, in suspension, is coated on to a 96 well plate at 10 μg per well. Test and reference [ZD-0892 (J. Med. Chem. 40, 1876-1885, 3173-3181 (1997), WO 95/21855) and α1 protease inhibitor (α1PI)] compounds are added to the wells at the appropriate concentrations. Human PMNs are separated from peripheral venous blood of healthy donors and resuspended in culture media. The neutrophils are added to the coated wells at concentrations ranging between 1×10^6 to 1×10^5 cells per well. Porcine pancreatic elastase (1.3 μM) is used as a positive control for the assay, and α1PI (1.2 μM) is used as the positive inhibitor of neutrophil elastase. The cellular control is PMNs without compound at each appropriate cell density. The cells plus compounds are incubated in a humidified incubator at 37° C. for 4 hours. The plates are centrifuged to allow the harvest of cell supernatant only. […] The plates are dried until no liquid is visible in the wells and read in a beta counter for 3 minutes per well. […]
The compounds of this invention are evaluated for their inhibitory activity in this HNE-dependent model of neutrophil elastolysis.
For “α1PI: α1 protease inhibitor, used as the positive inhibitor of neutrophil elastase”, the “inhibition of elastolysis (mean±s.e.m.)” value was 83.46±3.97%.

Same assay, conditions: n=2 different donors at 3.6×10^5 cells per well; read-out: IC50 (mean±s.e.m.)
Compound `COc1ccc(C(=O)N[C@H](C(=O)N2CCC[C@H]2C(=O)N[C@H](C(=O)C(F)(F)F)C(C)C)C(C)C)cc1` [ZD-0892] has an IC50 of 45.5 ± 7.75 nM.
